Key:
Test in all cases: relative viability (nuclei count vs DMSO), 5 days (fraction); higher = more cells survive
NCI-H1355 = tested on: NCI-H1355
Procedure, shortened: (§1)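 Lung cancer cell lines were pin-tool dosed in 1536-well plates on the day after seeding, with either a lone drug or a fixed anchor-drug dose plus five library-drug doses (not always all listed) in √10 steps. Nuclei were counted on 4× images after 5 days. Relative viability is the ratio of treated-well to vehicle-well nuclei counts, with each value a median of duplicate plates.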

NCI-H2170 = tested on: NCI-H2170
Procedure, shortened: as §1

NCI-H1792 = tested on: NCI-H1792
Procedure, shortened: as §1

NCI-H3122 = tested on: NCI-H3122
Procedure, shortened: as §1

NCI-H1651 = tested on: NCI-H1651
Procedure, shortened: as §1

NCI-H2347 = tested on: NCI-H2347
Procedure, shortened: as §1

NCI-H322M = tested on: NCI-H322M
Procedure, shortened: as §1

LCLC-103H = tested on: LCLC-103H
Procedure, shortened: as §1

NCI-H661 = tested on: NCI-H661
Procedure, shortened: as §1

NCI-H460 = tested on: NCI-H460
Procedure, shortened: as §1

NCI-H650 = tested on: NCI-H650
Procedure, shortened: as §1

LXF-289 = tested on: LXF-289
Procedure, shortened: as §1

SK-MES-1 = tested on: SK-MES-1
Procedure, shortened: as §1

RERF-LC-KJ = tested on: RERF-LC-KJ
Procedure, shortened: as §1

NCI-H1563 = tested on: NCI-H1563
Procedure, shortened: as §1

NCI-H596 = tested on: NCI-H596
Procedure, shortened: as §1

NCI-H1755 = tested on: NCI-H1755
Procedure, shortened: as §1

NCI-H520 = tested on: NCI-H520
Procedure, shortened: as §1

NCI-H727 = tested on: NCI-H727
Procedure, shortened: as §1

PC-14 = tested on: PC-14
Procedure, shortened: as §1

NCI-H441 = tested on: NCI-H441
Procedure, shortened: as §1

NCI-H1915 = tested on: NCI-H1915
Procedure, shortened: as §1

Oc1nc(-c2ccc(C(F)(F)F)cc2)nc2c1CSCC2 [XAV939] + CS(=O)(=O)N1CCN(Cc2cc3nc(-c4cccc5[nH]ncc45)nc(N4CCOCC4)c3s2)CC1 [Pictilisib] (partner 1 µM)
relative viability (NCI-H1355; first compound 0.08 µM): 0.414 | relative viability (NCI-H1355; first compound 0.253 µM): 0.374 | relative viability (NCI-H1355; first compound 0.8 µM): 0.387 | relative viability (NCI-H1355; first compound 2.53 µM): 0.236 | relative viability (NCI-H2170; first compound 0.08 µM): 0.298 | relative viability (NCI-H2170; first compound 0.253 µM): 0.277 | relative viability (NCI-H2170; first compound 0.8 µM): 0.269 | relative viability (NCI-H2170; first compound 2.53 µM): 0.26 | relative viability (NCI-H1792; first compound 0.08 µM): 0.331 | relative viability (NCI-H1792; first compound 0.253 µM): 0.254 | relative viability (NCI-H1792; first compound 0.8 µM): 0.229 | relative viability (NCI-H1792; first compound 2.53 µM): 0.257 | relative viability (NCI-H3122; first compound 0.08 µM): 0.667 | relative viability (NCI-H3122; first compound 0.253 µM): 0.533 | relative viability (NCI-H3122; first compound 0.8 µM): 0.568 | relative viability (NCI-H3122; first compound 2.53 µM): 0.381 | relative viability (NCI-H1651; first compound 0.08 µM): 0.569 | relative viability (NCI-H1651; first compound 0.253 µM): 0.454 | relative viability (NCI-H1651; first compound 0.8 µM): 0.53 | relative viability (NCI-H1651; first compound 2.53 µM): 0.638 | relative viability (NCI-H2347; first compound 0.08 µM): 0.681 | relative viability (NCI-H2347; first compound 0.253 µM): 0.636 | relative viability (NCI-H2347; first compound 0.8 µM): 0.418 | relative viability (NCI-H2347; first compound 2.53 µM): 0.523 | relative viability (NCI-H322M; first compound 0.08 µM): 0.572 | relative viability (NCI-H322M; first compound 0.253 µM): 0.491 | relative viability (NCI-H322M; first compound 0.8 µM): 0.541 | relative viability (NCI-H322M; first compound 2.53 µM): 0.439 | relative viability (LCLC-103H; first compound 0.08 µM): 0.724 | relative viability (LCLC-103H; first compound 0.253 µM): 0.483 | relative viability (LCLC-103H; first compound 0.8 µM): 0.601 | relative viability (LCLC-103H; first compound 2.53 µM): 0.498 | relative viability (NCI-H661; first compound 0.08 µM): 0.477 | relative viability (NCI-H661; first compound 0.253 µM): 0.378 | relative viability (NCI-H661; first compound 0.8 µM): 0.329 | relative viability (NCI-H661; first compound 2.53 µM): 0.267 | relative viability (NCI-H460; first compound 0.08 µM): 0.362 | relative viability (NCI-H460; first compound 0.253 µM): 0.332 | relative viability (NCI-H460; first compound 0.8 µM): 0.284 | relative viability (NCI-H460; first compound 2.53 µM): 0.334 | relative viability (NCI-H650; first compound 0.08 µM): 0.916 | relative viability (NCI-H650; first compound 0.253 µM): 1.05 | relative viability (NCI-H650; first compound 0.8 µM): 0.881 | relative viability (NCI-H650; first compound 2.53 µM): 0.74 | relative viability (LXF-289; first compound 0.08 µM): 0.872 | relative viability (LXF-289; first compound 0.253 µM): 0.731 | relative viability (LXF-289; first compound 0.8 µM): 0.764 | relative viability (LXF-289; first compound 2.53 µM): 0.597 | relative viability (SK-MES-1; first compound 0.08 µM): 0.401 | relative viability (SK-MES-1; first compound 0.253 µM): 0.327 | relative viability (SK-MES-1; first compound 0.8 µM): 0.415 | relative viability (SK-MES-1; first compound 2.53 µM): 0.32 | relative viability (RERF-LC-KJ; first compound 0.08 µM): 0.61 | relative viability (RERF-LC-KJ; first compound 0.253 µM): 0.457 | relative viability (RERF-LC-KJ; first compound 0.8 µM): 0.419 | relative viability (RERF-LC-KJ; first compound 2.53 µM): 0.366 | relative viability (NCI-H1563; first compound 0.08 µM): 0.645 | relative viability (NCI-H1563; first compound 0.253 µM): 0.656 | relative viability (NCI-H1563; first compound 0.8 µM): 0.605 | relative viability (NCI-H1563; first compound 2.53 µM): 0.611 | relative viability (NCI-H596; first compound 0.08 µM): 0.427 | relative viability (NCI-H596; first compound 0.253 µM): 0.384 | relative viability (NCI-H596; first compound 0.8 µM): 0.422 | relative viability (NCI-H596; first compound 2.53 µM): 0.4 | relative viability (NCI-H1755; first compound 0.08 µM): 0.456 | relative viability (NCI-H1755; first compound 0.253 µM): 0.353 | relative viability (NCI-H1755; first compound 0.8 µM): 0.413 | relative viability (NCI-H1755; first compound 2.53 µM): 0.388 | relative viability (NCI-H520; first compound 0.08 µM): 0.24 | relative viability (NCI-H520; first compound 0.253 µM): 0.251 | relative viability (NCI-H520; first compound 0.8 µM): 0.236 | relative viability (NCI-H520; first compound 2.53 µM): 0.227 | relative viability (NCI-H727; first compound 0.08 µM): 0.367 | relative viability (NCI-H727; first compound 0.253 µM): 0.324 | relative viability (NCI-H727; first compound 0.8 µM): 0.415 | relative viability (NCI-H727; first compound 2.53 µM): 0.357 | relative viability (PC-14; first compound 0.08 µM): 0.859 | relative viability (PC-14; first compound 0.253 µM): 0.662 | relative viability (PC-14; first compound 0.8 µM): 0.767 | relative viability (PC-14; first compound 2.53 µM): 0.386 | relative viability (NCI-H441; first compound 0.08 µM): 0.605 | relative viability (NCI-H441; first compound 0.253 µM): 0.461 | relative viability (NCI-H441; first compound 0.8 µM): 0.517 | relative viability (NCI-H441; first compound 2.53 µM): 0.603 | relative viability (NCI-H1915; first compound 0.08 µM): 1.11 | relative viability (NCI-H1915; first compound 0.253 µM): 0.967 | relative viability (NCI-H1915; first compound 0.8 µM): 0.941 | relative viability (NCI-H1915; first compound 2.53 µM): 0.921
